Measured values published in PubChem BioAssay AID1996.
Values after ≈ are worked out from the molar mass of the structure shown.

conditions: buffer; pH 7.4; 200.0 µM

SMILES | solubility kinetic [µg/mL]
COc1cc(OC)c(N(C)S(=O)(=O)c2cccc(C(=O)OCC(=O)N3CCOCC3)c2)cc1Cl | 56.6 (≈ 110 µM)
CCNC(=O)c1ccc(C23CC4CC(CC(C4)C2)C3)o1 | < 0.6
Cc1ccc(S(=O)(=O)N2CCCC(C(=O)NC3CC3)C2)cc1 (centres undefined) | 46.2 (≈ 143 µM)
COC(=O)c1c(NC(=O)CCC(=O)O)sc(Cc2ccccc2)c1C | 48.7 (≈ 135 µM)
O=C(c1ccc(NS(=O)(=O)c2ccccc2)cc1)N1CCOCC1 | > 52
COc1ccc2oc(C(=O)OCC(=O)N3CC(C)OC(C)C3)c(C)c2c1 (centres undefined) | 51.6 (≈ 143 µM)
CCC(Cc1ccccc1)NC(=O)C1CC1 (centres undefined) | > 32.6
O=C(COc1ccccc1)N1CCN=C1SCc1ccccc1 | 14.3 (≈ 43.8 µM)
COc1ccc(CCNC(=O)CN2C(=O)NC3(CCCCC3C)C2=O)cc1 (centres undefined) | > 56
CCSc1nc2sccc2c(=O)n1-c1ccccc1 | 27.3 (≈ 94.7 µM)
Cc1cccc(NC(=O)C2CC(=O)N(Cc3ccccc3)C2)n1 (centres undefined) | > 46.4
CCOC(=O)C1=C(C)N=C2SC(C)C(=O)N2C1c1ccccc1 (centres undefined) | 48.5 (≈ 147 µM)
CCCCOc1cccc(C(=O)Nc2ccccc2N2CCCC2)c1 | 1.2 (≈ 3.55 µM)
Cn1cc(/C=N/NC(N)=S)c2ccccc21 | > 34.8
Cc1ccc(NS(=O)(=O)c2ccc3c(c2)N(C)CCO3)cc1 | 36.1 (≈ 113 µM)
CC(C)(C)c1ccc(OCC(=O)Nc2ccncc2)cc1 | 3.7 (≈ 13 µM)
COc1cccc(SCC(=O)N2CCN(c3ccccc3)CC2)c1 | 34.2 (≈ 99.9 µM)
Cc1ccc(Sc2ccc(S(=O)(=O)Nc3ccc(C(=O)O)cc3)cc2)cc1C | > 62
Cc1ccc(NC(=O)CCCc2nc3ccccc3s2)c(O)c1 | > 49
COc1ccc(C(=O)Cn2cnc3ccccc3c2=O)cc1 | 31 (≈ 105 µM)

SMILES | solubility kinetic [µg/mL]
O=C(Nc1ccc([N+](=O)[O-])cc1)c1ccccc1 | 2.2 (≈ 9.08 µM)
CC1CC(C)CN(C(=O)Nc2ccccc2F)C1 (centres undefined) | 15 (≈ 59.9 µM)
CC(=O)Nc1ccc(C=C(C(C)=O)C(C)=O)cc1 | > 36.8
CC(C)N(Cc1ccccc1)C(=O)CN1C(=O)NC2(CCOc3ccccc32)C1=O (centres undefined) | > 61.1
O=C(NNC(=S)NC(=O)c1ccccc1)c1cccnc1 | > 45.1
S=C(Nc1ccc(Br)cc1)N1CCN(c2ccccn2)CC1 | 2.1 (≈ 5.57 µM)
O=C(Nc1ccccc1)c1ccccc1OCc1ccc(F)cc1 | < 0.7
CNC(=S)Nc1cc2oc3ccccc3c2cc1OC | 33.7 (≈ 118 µM)
Cc1cc(/C(N)=N/OC(=O)c2ccccc2Cl)no1 | > 42
Cn1cccc1C1CCCN1CC(=O)Nc1ccc(C(N)=O)cc1 (centres undefined) | > 49
COc1ccc(/C=C2\C(=O)ON=C2c2ccccc2)cc1 | 39.1 (≈ 140 µM)
COc1ccc(CN2CCSc3sccc3C2=O)cc1 | > 45.8
COc1ccc(-c2nc(C)sc2CC(=O)O)cc1OC | 42 (≈ 143 µM)
CC1CCN(C(=O)COC(=O)c2cn(C)c3ccccc23)CC1 | > 47.2
CCCCOc1cc(CC2CNC(=O)N2)ccc1OC (centres undefined) | > 41.8
CC(=O)Nc1cccc(NC(=O)Cc2cccs2)c1 | 28.4 (≈ 104 µM)
CC(=O)N1CCN(Cc2nc3cc([N+](=O)[O-])ccc3n2C)CC1 | 45.1 (≈ 142 µM)
Cc1cc(C(=O)N2CCN(c3ccccc3Cl)CC2)c(C)o1 | > 47.8
Cc1c(-c2csc(N)n2)cnn1C | > 29.1
COc1ccc(NC(=O)c2cccnc2SC)cc1OC | 19.2 (≈ 63.1 µM)

SMILES | solubility kinetic [µg/mL]
CC(C)C(NC(=O)C(C)N1C(=O)c2ccccc2C1=O)c1ccccc1 (centres undefined) | > 52.6
CC1CCCCN1C(=O)CSc1nnc2ccccn12 (centres undefined) | > 43.6
CC(C)CCNC(=O)COc1cccc2c1OC(C)(C)C2 | 43.4 (≈ 149 µM)
O=[N+]([O-])c1ccccc1S(=O)(=O)N1CCCc2ccccc21 | 10.9 (≈ 34.2 µM)
c1ccc2c(c1)CSc1ccccc1N2 | 6.8 (≈ 31.9 µM)
CC(=O)Nc1nc(C)cs1 | > 23.4
O=C(NC1CCCCC1)c1cccc(S(=O)(=O)N2CCCCC2)c1 | 5.6 (≈ 16 µM)
COc1ccc(N2CCN(c3cc(C)c4ccc(C)cc4n3)CC2)cc1 | 1.1 (≈ 3.17 µM)
CN1CCN(Cc2nnc(-c3ccccc3)o2)CC1 | > 38.7
O=C(O)CC(C(=O)Nc1ccc(Cl)cc1)N1CCCCCC1 (centres undefined) | > 48.7
O=C(c1ccco1)N1CCN(S(=O)(=O)c2cc(Cl)ccc2Cl)CC1 | 18.1 (≈ 46.5 µM)
O=C(CCNC(=O)c1ccco1)Nc1cccc(C(F)(F)F)c1 | > 48.9
Cc1ccccc1NC(=O)CCC(=O)OCC(=O)c1cccc([N+](=O)[O-])c1 | > 55.6
Cc1ccccc1-c1nc(CN2CCSCC2)c(C)o1 | 26.1 (≈ 90.5 µM)
Cc1nc2c(ncn2-c2ccccc2)c(=O)n1NC(=O)CN1CCCC1 | > 52.9
CCOc1ccc(C(C)=O)cc1Cc1c(O)[nH]c(=S)[nH]c1=O | 46.3 (≈ 145 µM)
CCOc1ccc(C(C)NC(=O)C2CCCC2)cc1 (centres undefined) | > 39.2
CC(=O)c1ccc(N2CCN(c3ncccn3)CC2)cc1 | 7.7 (≈ 27.3 µM)
CN(C)c1ncnc2sc(-c3ccccc3)cc12 | 3 (≈ 11.7 µM)
